Key:
[1] = biological target: T1, yeast methionine acetyltransferase (M-N^α AT) (Saccharomyces cerevisiae, UniProt Q06504); settings: Lee et al., J. Biol. Chem. 265:3603-3606 (1990); cited from earlier work
T1 construct: a crude yeast homogenate from the aaa1 mutant strain; endogenous in cells; host or cells: Saccharomyces cerevisiae strain T3A-a (aaa1), crude lysate
T1 sequence (Q06504 1-195): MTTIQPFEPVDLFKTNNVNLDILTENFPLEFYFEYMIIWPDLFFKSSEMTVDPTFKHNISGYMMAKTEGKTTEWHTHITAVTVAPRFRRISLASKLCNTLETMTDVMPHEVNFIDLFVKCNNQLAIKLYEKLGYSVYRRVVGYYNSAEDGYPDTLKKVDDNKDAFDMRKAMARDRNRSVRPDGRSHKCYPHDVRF
T1 sequence (Q12387 2-796 partner limits assumed): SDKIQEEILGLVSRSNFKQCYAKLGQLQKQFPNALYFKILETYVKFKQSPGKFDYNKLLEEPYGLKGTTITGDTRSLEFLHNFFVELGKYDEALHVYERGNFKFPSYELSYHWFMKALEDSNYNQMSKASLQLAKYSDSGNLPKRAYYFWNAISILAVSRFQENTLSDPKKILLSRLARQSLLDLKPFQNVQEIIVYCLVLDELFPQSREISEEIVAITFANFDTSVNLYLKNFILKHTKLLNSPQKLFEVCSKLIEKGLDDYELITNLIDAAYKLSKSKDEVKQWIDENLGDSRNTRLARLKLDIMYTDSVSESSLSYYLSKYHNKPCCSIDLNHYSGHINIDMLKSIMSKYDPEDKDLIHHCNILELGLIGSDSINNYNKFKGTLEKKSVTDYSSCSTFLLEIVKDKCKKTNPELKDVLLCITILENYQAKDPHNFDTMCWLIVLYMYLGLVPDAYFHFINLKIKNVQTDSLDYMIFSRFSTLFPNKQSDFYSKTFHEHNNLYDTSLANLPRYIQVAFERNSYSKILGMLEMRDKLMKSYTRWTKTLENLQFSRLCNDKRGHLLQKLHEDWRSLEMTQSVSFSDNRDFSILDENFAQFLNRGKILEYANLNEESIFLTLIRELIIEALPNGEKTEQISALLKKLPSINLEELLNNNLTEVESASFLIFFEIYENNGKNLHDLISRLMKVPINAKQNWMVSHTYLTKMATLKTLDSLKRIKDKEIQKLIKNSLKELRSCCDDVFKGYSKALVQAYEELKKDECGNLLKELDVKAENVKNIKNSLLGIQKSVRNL

[2] = system: yeast M-N^α -acetyltransferase; test: Effect of KCl or NaCl on enzyme activity; format: biochemical, Saccharomyces cerevisiae; settings: for reduction in enzyme activity: enzyme assay performed at 0.8M, 800000 µM; for effect on enzyme activity: up to 0.5M in the assay
Experimental: N^α -acetyltransferase activity was determined as previously described [Lee et al., J. Biol. Chem. 263:14948-14955 (1988)]. Aliquots of the lysate or chromatographic fractions were added to 1.5 ml Eppendorf tubes containing a reaction mixture of 50 mM HEPES, pH 7.4, 150 mM KCl, 1 mM DTT, 25 μM [^3 H] acetyl coenzyme A (0.5 μCi) and 50 μM synthetic peptide with an adjusted final volume of 100 μl. The assay mixture was incubated at 30° C. for 30 min. The reaction was stopped by adding 17 μl of 0.5M acetic acid and chilled in an ice bath. The reaction samples were filtered through SP membrane discs (Cuno) (previously pre-swollen in 0.5M acetic acid), and then washed three times with 1 ml of 0.5M acetic acid on a Millipore 1225 sampling manifold. The partially dried membranes were placed in scintillation cocktail and counted with a Beckman LS 3801 scintillation counter. One unit of activity was defined as the amount of enzyme able to transfer 1 pmol of [^3 H] acetyl group from [^3 H] acetyl coenzyme A to synthetic peptide per min under standard enzyme assay conditions defined above.

Compound | N^α -acetylation by yeast M-N^α AT [1] | reduction in enzyme activity [2] [%] | effect on enzyme activity [2]
24 residue synthetic peptide mimicking the NH2 terminus of yeast actin: 24 residue synthetic peptide mimicking the NH2 terminus of yeast actin (MDSEVAALVIDNGSGMCKAGFAGD; UniProt P60010 1-24, looked up, fragment) | will acetylate |  | 
[Cl-].[K+] [KCl] |  | 50 | did not affect the enzyme activity
[Cl-].[Na+] [NaCl] |  | 50 | did not affect the enzyme activity
